Where a name gives a salt, the structure may show the parent alone.
Molecular target: TrkA (Homo sapiens (Human), UniProt P04629)
Test: TrkA Omnia Assay
Assay type: biochemical
Conditions: averaged IC50; 20 nM enzyme, 500 μM ATP, 10 μM peptide substrate
How it was run: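 Continuous fluorescent kinase read-out (ex 360 nm, em 485 nm) over 70 min, with initial rates fitted to 4- or 5-parameter logistic curves for IC50. Final conditions: 500 μM ATP, 10 μM Omnia Tyr Peptide #4, 20 nM TrkA, MOPS pH 7.5 buffer with MgCl2 and Triton X-100; enzyme and compound preincubated 10 min at ambient temperature.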

Chain of TrkA (P04629 33-796): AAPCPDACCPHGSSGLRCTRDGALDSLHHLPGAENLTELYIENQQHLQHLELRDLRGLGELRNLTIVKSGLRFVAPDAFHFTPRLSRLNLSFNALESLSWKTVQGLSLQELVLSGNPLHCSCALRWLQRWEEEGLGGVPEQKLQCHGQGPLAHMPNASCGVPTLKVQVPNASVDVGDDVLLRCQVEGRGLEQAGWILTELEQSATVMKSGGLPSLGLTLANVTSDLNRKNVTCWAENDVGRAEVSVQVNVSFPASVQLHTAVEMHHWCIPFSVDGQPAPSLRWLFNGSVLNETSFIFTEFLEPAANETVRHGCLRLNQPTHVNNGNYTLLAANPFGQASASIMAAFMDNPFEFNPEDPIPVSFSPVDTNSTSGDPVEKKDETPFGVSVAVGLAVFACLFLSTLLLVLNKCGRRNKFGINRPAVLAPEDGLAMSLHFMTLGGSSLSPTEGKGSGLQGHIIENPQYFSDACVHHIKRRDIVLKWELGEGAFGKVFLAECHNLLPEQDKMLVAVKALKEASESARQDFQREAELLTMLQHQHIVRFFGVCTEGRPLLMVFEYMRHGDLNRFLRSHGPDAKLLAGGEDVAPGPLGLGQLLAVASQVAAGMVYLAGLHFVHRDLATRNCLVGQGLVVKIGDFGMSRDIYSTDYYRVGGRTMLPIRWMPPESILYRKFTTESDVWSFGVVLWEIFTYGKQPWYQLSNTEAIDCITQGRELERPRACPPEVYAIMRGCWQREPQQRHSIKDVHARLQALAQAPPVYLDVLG

Row | Compound | IC50 [nM]
1 | CCc1c(OCC(C)(C)O)nn(-c2ccccc2)c1NC(=O)N[C@@H]1CN(CCOC)C[C@H]1c1ccc(F)c(F)c1 [Example 542, 1-((3S,4R)-4-(3,4-difluorophenyvl)-1-(2-methoxyethyl)pyrrolidin-3-yl)-3-(4-ethyl-3-(2-hydroxy-2-methylpropoxy)-1-phenyl-1H-pyrazol-5-yl)urea] | < 100
2 | COCCN1C[C@@H](NC(=O)Nc2c(C)c(OCCN)nn2-c2ccccc2)[C@H](c2ccc(F)c(F)c2)C1 [Example 543, 1-(3-(2-aminoethoxy)-4-methyl-1-phenyl-1H-pyrazol-5-yl)-3-((3S,4R)-4-(3,4-difluorophenyl)-1-(2-methoxyethyl)pyrrolidin-3-yl)urea] | < 100
3 | COCCN1C[C@@H](NC(=O)Nc2c(C)c(OCCNS(C)(=O)=O)nn2-c2ccccc2)[C@H](c2ccc(F)c(F)c2)C1 [Example 544, N-(2-((5-(3-((3S,4R)-4-(3,4-difluorophenyl)-1-(2-methoxyethyl)pyrrolidin-3-yl)ureido)-4-methyl-1-phenyl-1H-pyrazol-3-yl)oxy)ethyl)methanesulfonamide] | < 100
4 | COCCN1C[C@@H](NC(=O)Nc2c(C)c(OCCNC(C)=O)nn2-c2ccccc2)[C@H](c2ccc(F)c(F)c2)C1 [Example 545, N-(2-((5-(3-((3S,4R)-4-(3,4-difluorophenyl)-1-(2-methoxyethyl)pyrrolidin-3-yl)ureido)-4-methyl-1-phenyl-1H-pyrazol-3-yl)oxy)ethyl)acetamide] | < 100
5 | COCCN1C[C@@H](NC(=O)Nc2c(C)c(OCCN3CCN(C(C)=O)CC3)nn2-c2ccccc2)[C@H](c2ccc(F)c(F)c2)C1 [Example 546, 1-(3-(2-(4-acetylpiperazin-1-yl)ethoxy)-4-methyl-1-phenyl-1H-pyrazol-5-yl)-3-((3S,4R)-4-(3,4-difluorophenyl)-1-(2-methoxyethyl)pyrrolidin-3-yl)urea] | < 100
6 | COCCN1C[C@@H](NC(=O)Nc2c(C)c(OCC(N)=O)nn2-c2ccccc2)[C@H](c2ccc(F)c(F)c2)C1 [Example 547, 2-((5-(3-((3S,4R)-4-(3,4-difluorophenyl)-1-(2-methoxyethyl)pyrrolidin-3-yl)ureido)-4-methyl-1-phenyl-1H-pyrazol-3-yl)oxy)acetamide] | < 100
7 | CCOc1nn(-c2ccccc2)c(NC(=O)N[C@@H]2CN(CCOC)C[C@H]2c2ccc(F)c(F)c2)c1NC(=O)C(F)(F)F [Example 548, N-(5-(3-((3S,4R)-4-(3,4-difluorophenyl)-1-(2-methoxyethyl)pyrrolidin-3-yl)ureido)-3-ethoxy-1-phenyl-1H-pyrazol-4-yl)-2,2,2-trifluoroacetamide] | 100 to 1000
8 | CCOc1nn(-c2ccccc2)c(NC(=O)N[C@@H]2CN(CCOC)C[C@H]2c2ccc(F)c(F)c2)c1N [Example 549, 1-(4-amino-3-ethoxy-1-phenyl-1H-pyrazol-5-yl)-3-((3S,4R)-4-(3,4-difluorophenyl)-1-(2-methoxyethyl)pyrrolidin-3-yl)urea] | < 100
9 | CCOc1nn(-c2ccccc2)c(NC(=O)N[C@@H]2CN(CCOC)C[C@H]2c2ccc(F)c(F)c2)c1CCO [Example 550, 1-((3S,4R)-4-(3,4-difluorophenyvl)-1-(2-methoxyethyl)pyrrolidin-3-yl)-3-(3-ethoxy-4-(2-hydroxyethyl)-1-phenyl-1H-pyrazol-5-yl)urea] | < 100
10 | COCCN1C[C@@H](NC(=O)Nc2c(C)c(OCCN3CCN(C)CC3)nn2-c2ccccc2)[C@H](c2ccc(F)c(F)c2)C1 [Example 551, 1-((3S,4R)-4-(3,4-difluorophenyl)-1-(2-methoxyethyl)pyrrolidin-3-yl)-3-(4-methyl-3-(2-(4-methylpiperazin-1-yl)ethoxy)-1-phenyl-1H-pyrazol-5-yl)urea trihydrochloride] | < 100
11 | COCCN1C[C@@H](NC(=O)Nc2c(C)c(OCC(=O)N3CCOCC3)nn2-c2ccccc2)[C@H](c2ccc(F)c(F)c2)C1 [Example 552, 1-((3S,4R)-4-(3,4-difluorophenyvl)-1-(2-methoxyethyl)pyrrolidin-3-yl)-3-(4-methyl-3-(2-morpholino-2-oxoethoxy)-1-phenyl-1H-pyrazol-5-yl)urea] | < 100
